pIC50: −log10 of the molar value.
Key:
Format in all cases: cell-based, human
RPMI = assay: Cell viability by flow cytometry (annexin V/7-AAD), RPMI; conditions: 18 hours
Method: The cell viability of the MM cell lines and primary cells from healthy PB donors was also evaluated by flow cytometry using 7-AAD/Annexin V. Patient bone marrow (BM) cells were analyzed using 7-AAD with a combination of monoclonal antibodies against myeloma-associated antigens (anti-CD56-APC, anti-CD45-Pacific Blue, and anti-CD38-APC-H7 [BD Biosciences]) and antibodies for distinguishing the granulomonocytic population (anti-CD64-FITC) and lymphocytic population (anti-CD45-Pacific Blue). The cells were acquired by means of FACSCanto II flow cytometer (BD Biosciences) and analyzed using Infinicyt™ Software (Cytognos, Spain).

U937 = assay: WST-1 cell viability assay, U937; conditions: U937, 18 hours
Method: (§1) U937, NB-4, KG-1, and MOLM-13 (DMSZ, Braunschweig, Germany) were cultured in complete RPMI 1640 medium (with 2 mM of L-glutamine, 100 mg of penicillin, 100 μg/ml of streptomycin, and with 10% FBS), supplemented with 10 mM HEPES, 1×NaPuvuvato, and 1× non-essential amino acids.
(§2) The cell lines and primary cells were cultured in 96-well plates (5×10e5 cells per well) with the addition of the indicated concentrations of WIN 55,212-2 or PGN cannabinoids in DMSO or with the solvent only in triplicate at 18, 48, and 72 hours. Caspase inhibitor Z-VAD (OMe)-FMK or the CB2 receptor antagonist PGN-8, -37, and -70, together with the cannabinoid WIN-55,212-2, were also added. Cell viability was determined by means of the WST-1 assay [2-(4-iodophenyl)-3-(4-nitrophenyl)-5-(2,4-disulfophenyl)-2H-tetrazolium] according to the manufacturer's instructions (Dojindo Molecular Technologies). Optical densities were measured at 450 nm using a Multiskan™ Go Microplate plate reader (Thermo Fisher Scientific, Waltham, Mass., USA).
(§3) Now it will be analyzed whether the exposure to cannabinoids had any effect on the viability of the tumor cells in vitro. […]

MOLM-13 = assay: WST-1 cell viability assay, MOLM-13; conditions: MOLM-13, 18 hours
Method: as §1, §2, §3

CS(=O)(=O)O.Cc1c(C(=O)c2cccc3ccccc23)c2cccc3c2n1[C@H](CN1CCOCC1)CO3 [WIN-55, (R)-(+)-[2,3-dihydro-5-methyl-3-(4-morpholinomethyl)-pyrrolo[1,2,3]-1,4-benzoxazin-6-yl]-1-naphthalenylmethanone mesylate]
pIC50 (RPMI): 4.90 | % viable cells at 50 μM (U937): 17.2% | pIC50 (U937): 4.80 | % viable cells at 50 μM (MOLM-13): 56.6% | pIC50 (MOLM-13): 4.59
